Measured values as given in patent publication US7423015B1, “Antihelminthic drugs as a treatment for hyperproliferative diseases” (Board of Regents, The University of Texas System, priority 2001, dated 2008).

Assays:
[1] = system: Ad-luciferase transgene expression; assay: Ad-luciferase transgene expression with or without MZ; format: cell-based; conditions: six cell lines, MZ at 50 ng/ml, 48 hours
Experimental: FIG. 8. Expression of Ad-luciferase in H1299 cells with and without MZ. H1299 cells were treated with media (UT) or Ad-luciferase at increasing multiplicities of infection, with or without MZ at 50 ng/ml. Forty-eight hours later, cells were harvested and luciferase activity assayed.
FIG. 9. Expression of Ad-luciferase in A549 cells with and without MZ. A549 cells were plated in 6-well dishes and either treated with media (UT) or Ad-luciferase at increasing multiplicities of infection, with or without MZ at 50 ng/ml. Forty-eight hours later, cells were harvested and luciferase activity assayed.
Next, a series of six cell lines were transfected with Ad-luciferase at increasing multiplicities of infection, with or without MZ at 50 ng/ml.

[2] = system: neovascularization induced by A549 cells; assay: Angiogenesis by tumor cells in vivo, dorsal air-sac method; set-up: species or system nude mouse; conditions: MZ oral suspension 1 mg/mouse/day, day 5
Experimental: In vivo angiogenesis was assayed by the dorsal air-sac method (Bouvet et al., 1998). Briefly, 1×10^7 cultured A549 cells were suspended in PBS and packed into round cellulose ester membrane chambers with a diameter of 14 mm (pore size, 0.45 μm; Millipore, Bedford, Mass.). The chambers were then implanted into a dorsal air sac of a nude mouse. After the chamber implantation mice were fed with MZ oral suspension (1 mg/mouse/day). Five mice were used in each group. The mice were killed on day 5, and the subcutaneous region overlying the chamber in each mouse was photographed. The experiment was repeated two times with identical results.
In vivo angiogenesis was further assayed by the dorsal air-sac method (Tanaka et al., 1989). Subcutaneous neovascularization overlying a semipermeable membrane chamber containing […] cells. […] In order to exclude the possibility that the reduced vasculature was due to lack of viable tumor cells in the chamber, cells were prelabeled with fluorescent dye and injected into the chamber. After the blood vessels were photographed, the tumor cells on the membrane was examined under a fluorescence microscope.

[3] = system: HUVEC cell tube formation; assay: HUVEC tube formation in conditioned medium; format: cell-based, human
Description: One of the most encouraging findings is that MZ inhibited the neovascularization in the human xenografts tested. […] The inventors have thus shown that MZ is a potent antiangiogeneic agent. It had no effect on endothelial cell growth, instead directly targeting tumor cells in vivo. MZ may be effective in the treatment of cancer and other angiogenesis-dependent diseases.

p53 protein = assay: p53 induction, immunoblot analysis of nuclear extracts; format: cell-based, human; conditions: H460; 0.05 μg/ml, exposure 1 to 24 hr
Experimental: Cells were grown in 6-cm dishes, cultured, and treated as described above. To prepare the whole-cell lysates, the medium was removed and cells were washed twice with ice-cold Tris-buffered saline (TBS) (150 mM NaCl, 10 mM Tris; pH 7.6) and lysed with 0.5 ml of lysis buffer (10 mM Tris, 150 mM NaCl, 1% Triton X-100, 5 mM EDTA, 25 mM glycerphosphate, 1 mM phenylmethylsulphonyl fluoride (PMSF), 2 mM benzamidine, […], and 1 mM sodium orthovanadate) for 15 min. The lysed cells were then transferred to 1.5 ml microtubes, centrifuged at 15,000×g for 10 min at 4° C., and the supernatants collected mixed with Laemmli's sample buffer and subjected to western blot analysis as described elsewhere (Nare et al., 1994). Blots were probed with anti-p53 monoclonal antibody Bp53-12 (Santa Cruz Biotechnology, Inc.) and the immunocomplex was detected by the Enhanced Chemiluminescence kit according to the manufacturer's directions (Amersham).
Cell extracts were prepared from H460 cells exposed to 0.05 μg/ml FZ or MZ for various durations (1 to 24 hr). The effect of FZ and MZ on the nuclear accumulation of p53 appeared to be gradual and was not significant within the first hour of exposure. […] The appearance of p53 in response to drug treatment also coincided with the initiation of apoptosis, which was detectable by 24 hr, as well as shown earlier by TdT FACS analysis. […] Total RNA was extracted and […] was used for the analysis. p53 protein was detected by immunoblot analysis.

H358 = assay: Proliferation assay, 50% growth inhibitory concentration; format: cell-based; conditions: Homo sapiens, NCI-H358, 24 h; H358, p53 deleted; after 1 day of exposure
Experimental: (§1) All cell lines were grown in RPMI 1640 medium supplemented with 5% fetal bovine serum and 5% CO2. All experiments were done when the cells were 70% confluent. For cell growth measurements, 5×10^4 cells were plated in each well of six-well plates. Control and BZ-treated (0.05 μg/ml) cells were trypsinized and counted using a hemocytometer. Experiments were done in triplicate and the mean and standard deviation were determined by standard methods.
(§2) Studies to determine the IC50 for fenbendazole and mebendazole were performed on a panel of six different human cancer cell lines: two carrying the wild-type p53 gene and actively expressing the p53 protein, (H460 and A549); one marked by homozymes deletion of the p53 gene and lacking p53 gene expression (H358); two expressing mutant p53 (H322 and H596); and one in which wild-type p53 is inactivated by human papilloma virus E6 protein. […] A dose of 166 nM (˜[…]) was chosen for these studies because it had been shown previously that this concentration was sufficient to induce wild-type p53 after 24 h of treatment.

H460 = assay: as above; format: cell-based; conditions: Homo sapiens, NCI-H460, 24 h; H460, p53 positive; inhibit growth by 50% after 1 day of exposure
Experimental: as §1, §2

A549 = assay: as above; format: cell-based; conditions: Homo sapiens, 24 h; A549, p53 positive; after 1 day of exposure
Experimental: as §1, §2

H322 = assay: as above; format: cell-based; conditions: Homo sapiens, NCI-H322, 24 h; H322, p53 mutated; after 1 day of exposure
Experimental: as §1, §2

H596 = assay: as above; format: cell-based; conditions: Homo sapiens, NCI-H596, 24 h; H596, p53 mutated; after 1 day of exposure
Experimental: as §1, §2

HeLa (p53 inactivated) = assay: as above; format: cell-based; conditions: Homo sapiens, 24 h, after 1 day of exposure
Experimental: as §1, §2

[4] = system: H1299 (p53 deleted), H322 (p53 mutated), H460 (wt p53) and A549 (wt p53) human lung cancer cell lines; assay: 3-day growth assay with Ad5p53 and FZ; format: cell-based
Experimental: In those assays, growing, cultured cells were trypsinized and plated (10^4 cells/well) and then infected the next day with Ad5p53 at 1 MOI. Viral supernatant was then added, after which cells were incubated for 24 h, washed with PBS, fed fresh medium or incubated with medium containing FZ for 24 h, washed again, and fed fresh medium. In contrast, uninfected cells (controls) were treated with FZ for 24 h, washed with PBS, fed fresh medium, and then subjected to a 3-day growth assay (FIG. 4A).

Row | Structure (SMILES) | transgene expression [1] | number and caliber of blood vessels [2] | HUVEC cell tube formation [3] | time at which nuclear accumulation of p53 became significantly detectable (p53 protein) | time at which nuclear accumulation of p53 peaked (p53 protein) | IC50 (H358) | IC50 (H460) | IC50 (A549) | IC50 (H322) | IC50 (H596) | IC50 (HeLa (p53 inactivated)) | cell growth after FZ alone, p53-mutated and deleted cells ([4]; 0.05 μg/ml FZ for 24 h) | growth inhibition after FZ alone, wt p53 H460 cells ([4]; 0.05 μg/ml FZ for 24 h) | cell growth after Ad5p53 plus FZ ([4]; Ad5p53-transduced cells (1 MOI, 24 h) treated with FZ for 24 h, all four cell lines, 3-days growth assay)
1 | COC(=O)Nc1nc2ccc(C(=O)c3ccccc3)cc2[nH]1 [Mebendazole, Methyl 5-benzoylbenzimidazole-2-carbamate] | significant increases | significantly reduced | inhibited | about 16 hr | 24 h | 893 nM | 106 nM | 130 nM | 871 nM | 601 nM | 400 nM | – | – | –
2 | COC(=O)Nc1nc2ccc(Sc3ccccc3)cc2[nH]1 [Fenbendazole, methy 5-(phenylthio)-2-benzimidazole-2-carbamate] | – | – | – | about 16 hr | 24 h | 654 nM | 152 nM | 123 nM | 816 nM | 643 nM | 853 nM | not growth inhibited | significantly so | striking growth inhibition
